Laboratory results reported in US20130053243A1, “PLANTS HAVING INCREASED TOLERANCE TO HERBICIDES” (BASF SE, priority 2010, published 2013).

What was measured:
Assay in all cases: Growth inhibition of Chlamydomonas strains (tolerance)
Format in all cases: cell-based, Chlamydomonas reinhardtii
Details in all cases: read-out: IC50 of growth inhibition
[1] = test system: Chlamydomonas strain CMr13
Description: (§1) Algae cells of Chlamydomonas reinhardtii strains CC-503 and CC-1691 (Duke University, Durham, USA) are propagated in TAP medium (Gorman and Levine (1965) PNAS 54: 1665-1669) by constant shaking at 100 rpm, 22° C. and 30 μmol Phot*m^−2*[…] light illumination. Scenedesmus obliquus (University of Gottingen, Germany) are propagated in algae medium as described (Boger and Sandmann, (1993) In: Target assays for modern herbicides and related phytotoxic compounds, Lewis Publishers) under same culturing conditions as mentioned for Chlamydomonas. Compound screening is performed at 450 μmol Phot*m^−2*[…] illumination.
(§2) Sensitive strains of Chlamydomonas reinhardtii or Scenedesmus obliquus (Tables 14, 15) are mutated with 0.14 […] (EMS) for 1 h as described by Loppes (1969, Mol Gen Genet. 104: 172-177) Tolerant strains are identified by screening of mutagenized cells on solid nutrient solution plates containing “coumarone-derivative herbicides” or other HPPD inhibiting herbicides at wildype-lethal concentrations. Examples of the data obtained are depicted in Table 16 and FIG. 2.

[2] = test system: Chlamydomonas strain CMr06
Description: as §1, §2

[3] = test system: Chlamydomonas strain CMr05
Description: as §1, §2

[4] = test system: Chlamydomonas strain CC1961 wild-type
Description: as §1, §2

[5] = test system: Chlamydomonas strain CMr04
Description: as §1, §2

[6] = test system: Chlamydomonas strain CMr10
Description: as §1, §2

[7] = test system: Chlamydomonas strain CMr15
Description: as §1, §2

SMILES	IC50 [1] [µM]	IC50 [2] [µM]	IC50 [3] [µM]	IC50 [4] [µM]	IC50 [5] [µM]	IC50 [6] [µM]	IC50 [7] [µM]
CC1=NOC(c2c(Cl)ccc(C3=C(O)c4ncccc4N(CC(F)F)S3(=O)=O)c2Cl)C1 (centres unmarked) [Inhibitor 1, 3-[2,4-dichloro-3-(3-methyl-4,5-dihydroisoxazol-5-yl)phenyl]-1-(2,2-difluoroethyl)-2,2-dioxo-pyrido[3,2-c]thiazin-4-ol]	810	> 1000	> 1000	620	> 1000	> 1000	> 1000
Cc1c(C(=O)c2cnn(C)c2O)ccc(S(C)(=O)=O)c1C1=NOCC1 [Topramezone, reference compound]	200	860	710	140	390	920	230
